Results taken from patent US8685372B2, “Peptides and aptamers for targeting of neuron or nerves” (The Regents of the University of California, priority 2009, dated 2014).
“Also recorded” adds a separate entry of the source. No end group written: not given here. heptamethinecyanine derivative = not defined here; Cy5 = Cy5 cyanine fluorescent dye label; 5,6FAM = 5(6)-carboxyfluorescein label

Legend:
[1] = test system: sciatic nerves; assay: In vivo nerve labeling with fluorescently labeled peptides (nerve versus adjacent non-nerve tissue); parameters: species or system mice; conditions: for Nerve contrast: derivatives of peptide SEQ ID NO: 4; for nerve to muscle contrast: FAM-labeled peptides intravenously, living mice, after wash-out
Procedure: To test the nerve binding affinity of each of the isolated peptide sequences in vivo, carboxyfluorescein (FAM)-labeled peptides were injected intravenously into living mice. Following a wash-out period, the contrast between nerve and muscle binding of the labeled peptides was evaluated.
Wild-type albino C57BL6 (Jackson Laboratory) or SKH1 (Charles River Laboratories) mice were treated intravenously with 150 nmoles of fluorescently labeled SEQ ID NO:4 via tail vein injection. Following a 2-3 hour wash-out period for SEQ ID NO:25 or 5-6 hours for SEQ ID NO:31, mice were anesthetized with ketamine and midazolam (80 mg/kg intraperitoneally), a skin incision was made over the dorsal surface of the hind, legs and the sciatic nerves exposed bilaterally. […] Nerves and adjacent non-nerve tissue was delineated with Image J and relative fluorescence was measured. Following background subtraction using dark current measurements and measurements of a standard, the ratios of peptide binding to nerve versus adjacent non-nerve tissue were calculated.

[2] = test system: dissected nerve tissue; assay: In vitro nerve binding: dissected nerve tissue incubated with peptide; parameters: species or system mice; conditions: 100 nM peptide, one hour incubation
Procedure: To test the nerve binding affinity of each of the isolated peptide sequences in vitro, dissected nerve tissue was removed from mice and incubated for one hour with 100 nM of each peptide, including a control peptide made up of amino acids that were contained within the various phages selected and sequenced, but in a mixed-up order and designed without repeating any single amino acid except for glycine (which was added to the C-terminus as a flexible linker).

[3] = Peptide biodistribution and metabolism (organ fluorescence, LC-MS and MALDI of urine); type: in vivo, mice
Procedure: (§1) To evaluate the biodistribution of the peptide following systemic administration, organs were harvested from mice treated with SEQ ID NO:4 and fluorescence uptake was evaluated. […] To evaluate the metabolism of the peptide as it passed through the renal system, liquid chromatography-mass spectrometry (LC-MS, Agilent) tracing was used to compare urine obtained from mice injected with SEQ ID NO:25 or SEQ ID NO:31 intravenously versus urine from normal mice spiked with the native SEQ ID NO:25 or SEQ ID NO:31. […] Next, matrix-assisted. laser desorption/ionization (MALDI) was used to evaluate the nature of the modification to the peptide as it was metabolized.
as §1, with “NO:25 and” for “NO:25 or”, “ID NO:3” for “ID NO:31”, “ID NO:25.” for “ID NO:25 or SEQ ID NO:31.”, “Next, matrix-assisted” for “Next, matrix-assisted.”

[4] = test system: sciatic nerve; assay: Histology: localization of binding in nerves of thy1-YFP transgenic mice; type: in vivo
Source text: To evaluate the localization of SEQ ID NO:4 binding in nerves, we treated thy1-YFP transgenic mice whose axons are genetically encoded with YFP under a neuron specific promoter (Feng et al, Imaging neuronal subsets in transgenic mice expressing multiple spectral variants of GFP. Neuron, 2000) with SEQ ID NO:31. […] These deeper nerve structures were not easily seen either with brightfield (FIG. 5A, insert) or YFP (FIG. 5B, insert) imaging. To evaluate the localization of SEQ ID NO:4 binding on a cellular level, we imaged cryosections (3-5 μm) of nerves and attached muscles from thy1-YFP animals treated with SEQ ID NO:31.

Substance: acetyl- SHSNTQTLAKAPEHTG-(L-cys)-(heptamethinecyanine derivative) (Ac-SHSNTQTLAKAPEHTGC(heptamethinecyanine derivative); not fully specified; reading uncertain) [SEQ ID NO: 52]
- Nerve contrast [1]: Low

Substance: acetyl- SHSNTQTLAKAPEHTG-(L-cys)-(IR800CW) (Ac-SHSNTQTLAKAPEHTGC(IR800CW); not fully specified) [SEQ ID NO: 48]
- Nerve contrast [1]: Low

Substance: acetyl- SHSNTQTLAKAPEHTG-(L-cys)-(indocyanine green derivative) [SEQ ID NO: 51]
- Nerve contrast [1]: Low

Substance: acetyl- SHSNTQTLAKAPEHTG-(D-cys)-(cy5)-amide (Ac-SHSNTQTLAKAPEHTG; not fully specified (C-terminus))
- Nerve contrast [1]: Medium

Substance: AHHNSWKAKHHS (peptide that specifically binds to a neuron, nerve, or component of either) [SEQ ID NO:1]
- nerve to muscle contrast [1]: little significant nerve-to muscle contrast
- uptake/binding to dissected nerve tissue compared to no peptide or control peptide [2]: two-fold increase over control to no difference from control

Substance: acetyl- SHSNTQTLAKAPEHTG-(L-cys-)-(TAMRA)-amide (Ac-SHSNTQTLAKAPEHTGC(TAMRA)-NH2) [SEQ ID NO: 49]
- Nerve contrast [1]: Medium

Substance: KSLSRHDHIHHH (peptide that specifically binds to a neuron, nerve, or component of either) [SEQ ID NO:3]
- nerve to muscle contrast [1]: exhibited nerve to muscle contrast, although at a lower level than that of SEQ ID NO:4
- uptake/binding to dissected nerve tissue compared to no peptide or control peptide [2]: two-fold increase over control to no difference from control

Substance: Free amine- SHSNTQTLAKAPEHTG-(L-cys)-(5,6FAM)-amide (H-SHSNTQTLAKAPEHTGC(5,6FAM)-NH2; not fully specified) [SEQ ID NO: 47]
- Nerve contrast [1]: Medium/High

Substance: acetyl- SHSNTQTLAKAPEHTG-(L-cys)-(Texas Red)-amide (Ac-SHSNTQTLAKAPEHTGC(Texas Red)-NH2) [SEQ ID NO: 50]
- Nerve contrast [1]: Medium

Substance: ACETYL-SHSNTQTLAKAPEHTG-(L-cys)-(Cy5)-amide (Ac-SHSNTQTLAKAPEHTGC(Cy5)-NH2; also: Cy5 on C-terminal Cys, attachment site not given here) [SEQ ID NO:31]
- Nerve contrast [1]: Medium/High
- native peptide detectable in urine of intravenously injected mice ([3]; LC-MS): none
- only fluorescently labeled entity identified in urine ([3]; MALDI): cysteine-Cy5
- labeling of nerves genetically encoded with YFP ([4]; Cy5 fluorescence versus YFP and brightfield): precisely labels nerves
- localization of labeling within nerve ([4]; cryosections of nerves): most localized to the epineurium of the nerves with some labeling of the perineurium and endoneurium; also recorded: labeling of epineurium, perineurium and endoneurium
- tissue penetration compared to imaging in the visible range ([4]; mouse, in vivo): deeper tissue penetration

Substance: acetyl- SHSNTQTLAKAPEHTG-(D-cys)-(5,6FAM)-amide (Ac-SHSNTQTLAKAPEHTG; not fully specified (C-terminus); also: 5,6FAM on C-terminal D-Cys, attachment site not given here)
- Nerve contrast [1]: Medium

Substance: acetyl- SHSNTQTLAKAPEHTG(L-cys)(5,6FAM)-amide (Ac-SHSNTQTLAKAPEHTGC(5,6FAM)-NH2; not fully specified) [SEQ ID NO: 46]
- Nerve contrast [1]: Medium/High

Substance: DFTKTSPLGIH (peptide that specifically binds to a neuron, nerve, or component of either) [SEQ ID NO:5]
- nerve to muscle contrast [1]: exhibited nerve to muscle contrast, although at a lower level than that of SEQ ID NO:4
- uptake/binding to dissected nerve tissue compared to no peptide or control peptide [2]: two-fold increase over control to no difference from control
